Here are results for 5 compounds from BindingDB's records for doi:10.1016/s0960-894x(98)00240-6 (Boehringer Ingelheim (Canada), 1999).

This assay can be described thus: Inhibitory activity against porcine pancreatic elastase(PPE).

Molecules are shown by their SMILES.

Take `O=C1CC(SCc2ccccn2)N1C(=O)N[C@H](CO)c1ccccc1` (stereo partly drawn) [2-Oxo-4-(pyridin-2-ylmethylsulfanyl)-azetidine-1-carboxylic acid ((S)-2-hydroxy-1-phenyl-ethyl)-amide]: the IC50 (usually the midpoint of a concentration-inhibition curve) was greater than 75 µM.

Compound `C[C@@H](NC(=O)N1C(=O)CC1SCc1ccncc1)c1ccccc1` (stereo partly drawn) [2-Oxo-4-(pyridin-4-ylmethylsulfanyl)-azetidine-1-carboxylic acid ((R)-1-phenyl-ethyl)-amide] returned an IC50 of 21 µM.

Compound `C[C@@H](NC(=O)N1C(=O)CC1SCc1cccnc1)c1ccccc1` (stereo partly drawn) [2-Oxo-4-(pyridin-3-ylmethylsulfanyl)-azetidine-1-carboxylic acid ((R)-1-phenyl-ethyl)-amide] yielded an IC50 of 65 µM.

`CC(C)C[C@@H](COC1CC(=O)N1C(=O)NCc1ccccc1)NC(=O)[C@@H](NC(=O)OC(C)(C)C)C(C)(C)C` (stereo partly drawn) [{(S)-1-[(S)-1-(1-Benzylcarbamoyl-4-oxo-azetidin-2-yloxymethyl)-3-methyl-butylcarbamoyl]-2,2-dimethyl-propyl}-carbamic acid tert-butyl ester] came in with an IC50 greater than 75 µM.

In turn, `CC[C@@H](NC(=O)N1C(=O)[C@@H](C)[C@@H]1SCc1ccccn1)c1ccccc1` [(3R,4S)-3-Methyl-2-oxo-4-(pyridin-2-ylmethylsulfanyl)-azetidine-1-carboxylic acid ((R)-1-phenyl-propyl)-amide] yielded an IC50 of 0.73 µM.
